Measured values from patent US5395947A, “Platinum(II) complex and processes for preparing the same” (Sunkyong Industries, Ltd., priority 1991, dated 1995).

Tests used:
ICR mice = test: Acute toxicity test; type: in vivo; parameters: Lethality: unit not given here; settings: for Lethality: 10080 min
Method in brief: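 Single i.p. administration to ICR mice (7 weeks old, both sexes, n=6/group); appearance and mortality logged over 7 days, dead animals autopsied for gross pathology.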

murine leukemia L1210 = test: Antitumor activity test on murine leukemia L1210 in vivo; parameters: species or system male BDF1 mice; settings: days 1, 5, 9
Method in brief: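 Male BDF1 mice (6 weeks, 21±3 g; n=7) received 1×10^6 leukemia cells into the peritoneum on day 0, then test compound suspended or dissolved in 0.5% CMC i.p. on days 1, 5, 9. Activity expressed as T/C %, mean survival treated versus 0.5% CMC-injected controls.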

Test for nephrotoxicity = type: in vivo, male ICR mice
Protocol: 4. Test for nephrotoxicity
The compounds of the present invention were dissolved or suspended in 0.5% CMC solution(in water) and were administered intraperitoneally one time to 8-week-old male ICR mice weighing 30±3 g. Each treatment and control groups consisted of six mice.
The administration amount of the test compound was 1.5 times the optimum dose obtained in Table 2, or more. On days 1, 4 and 8 after administration, their blood was collected under ether anesthesia for measurement of blood urea nitrogen concentration (BUN value) and creatinine concentration.
A pair of kidneys were taken and, after immediate weighing, were stored in a 10% neutral buffered formalin solution. The body weight ratio shown in Table 5 is a ratio of the body weight measured on days 1, 4 and 8 from the administration of the compound to the body weight measured on the administration day.

[1] = test system: murine leukemia L1210 cells; test: Growth inhibition test on cultured murine leukemia L1210 cells; type: cell-based; settings: 48 hours, 37° C., Trypan blue viability
Method in brief: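 Read-out is Trypan blue (0.17%) viability versus compound-free controls. Cells, 1×10^5, were cultured 48 h at 37° C under 5% CO2 in RPMI 1640/10% FCS containing various compound concentrations.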

[2] = Test for water solubility; type: physicochemical
Source text: 3. Test for water solubility
A standard plot of UV absorbance(220 nm) vs. concentration was made; and employed to determine water-solubility.
The mixture was then passed through a 0.45 micron disposable membrane filter before dilution and UV measurement.

[3] = 150 mg/kg i.p. once, mean ± standard error
[4] = 150 mg/kg i.p. once, vs. administration day

CC(C)C1OC(CN)C(CN)O1.CC1[O][Pt][O]C1=O [Example 19, (L-lactato-O,O')[(4R,5R)-4,5-bis(aminomethyl)-2-isopropyl-1,3-dioxolane]platinum(II)]
Number of dead mice for 7 days (ICR mice; female, 41.3 mg/kg i.p.): 2/6
Number of dead mice, 1st day (ICR mice; female, 41.3 mg/kg i.p.): 0/6
Number of dead mice, 5th day (ICR mice; female, 41.3 mg/kg i.p.): 1/6
Number of dead mice, 6th day (ICR mice; female, 41.3 mg/kg i.p.): 1/5
Lethality (ICR mice; female, 41.3 mg/kg i.p.): 33.3
Number of dead mice for 7 days (ICR mice; female, 54.9 mg/kg i.p.): 4/6
Number of dead mice, 1st day (ICR mice; female, 54.9 mg/kg i.p.): 0/6
Number of dead mice, 3rd day (ICR mice; female, 54.9 mg/kg i.p.): 1/6
Number of dead mice, 4th day (ICR mice; female, 54.9 mg/kg i.p.): 2/5
Number of dead mice, 5th day (ICR mice; female, 54.9 mg/kg i.p.): 1/3
Lethality (ICR mice; female, 54.9 mg/kg i.p.): 66.7
Number of dead mice for 7 days (ICR mice; female, 71.4 mg/kg i.p.): 5/6
Number of dead mice, 1st day (ICR mice; female, 71.4 mg/kg i.p.): 0/6
Number of dead mice, 4th day (ICR mice; female, 71.4 mg/kg i.p.): 1/6
Number of dead mice, 5th day (ICR mice; female, 71.4 mg/kg i.p.): 3/5
Number of dead mice, 6th day (ICR mice; female, 71.4 mg/kg i.p.): 1/2
Lethality (ICR mice; female, 71.4 mg/kg i.p.): 83.3
Number of dead mice for 7 days (ICR mice; female, 91.8 mg/kg i.p.): 6/6
Number of dead mice, 1st day (ICR mice; female, 91.8 mg/kg i.p.): 0/6
Number of dead mice, 2nd day (ICR mice; female, 91.8 mg/kg i.p.): 1/6
Number of dead mice, 3rd day (ICR mice; female, 91.8 mg/kg i.p.): 2/5
Number of dead mice, 4th day (ICR mice; female, 91.8 mg/kg i.p.): 2/3
Number of dead mice, 5th day (ICR mice; female, 91.8 mg/kg i.p.): 1/1
Lethality (ICR mice; female, 91.8 mg/kg i.p.): 100.0
Number of dead mice for 7 days (ICR mice; male, 41.3 mg/kg i.p.): 3/6
Number of dead mice, 1st day (ICR mice; male, 41.3 mg/kg i.p.): 0/6
Number of dead mice, 5th day (ICR mice; male, 41.3 mg/kg i.p.): 1/6
Number of dead mice, 6th day (ICR mice; male, 41.3 mg/kg i.p.): 2/5
Lethality (ICR mice; male, 41.3 mg/kg i.p.): 50.0
Number of dead mice for 7 days (ICR mice; male, 54.9 mg/kg i.p.): 4/6
Number of dead mice, 1st day (ICR mice; male, 54.9 mg/kg i.p.): 0/6
Number of dead mice, 4th day (ICR mice; male, 54.9 mg/kg i.p.): 1/6
Number of dead mice, 5th day (ICR mice; male, 54.9 mg/kg i.p.): 2/5
Number of dead mice, 6th day (ICR mice; male, 54.9 mg/kg i.p.): 1/3
Lethality (ICR mice; male, 54.9 mg/kg i.p.): 66.7
Number of dead mice for 7 days (ICR mice; male, 71.4 mg/kg i.p.): 5/6
Number of dead mice, 1st day (ICR mice; male, 71.4 mg/kg i.p.): 0/6
Number of dead mice, 4th day (ICR mice; male, 71.4 mg/kg i.p.): 1/6
Number of dead mice, 5th day (ICR mice; male, 71.4 mg/kg i.p.): 2/5
Number of dead mice, 6th day (ICR mice; male, 71.4 mg/kg i.p.): 2/3
Lethality (ICR mice; male, 71.4 mg/kg i.p.): 83.7
Number of dead mice for 7 days (ICR mice; male, 91.8 mg/kg i.p.): 6/6
Number of dead mice, 1st day (ICR mice; male, 91.8 mg/kg i.p.): 0/6
Number of dead mice, 2nd day (ICR mice; male, 91.8 mg/kg i.p.): 1/6
Number of dead mice, 3rd day (ICR mice; male, 91.8 mg/kg i.p.): 4/5
Number of dead mice, 5th day (ICR mice; male, 91.8 mg/kg i.p.): 1/1
Lethality (ICR mice; male, 91.8 mg/kg i.p.): 100.0
T/C (%) (murine leukemia L1210; 12.5 mg/kg i.p.): 208%
T/C (%) (murine leukemia L1210; 25 mg/kg i.p.): 232%
T/C (%) (murine leukemia L1210; 50 mg/kg i.p.): toxic
BUN, 1st day (Test for nephrotoxicity; 18.8 mg/kg i.p. once): 38.6 mg/100 ml
BUN, 4th day (Test for nephrotoxicity; 18.8 mg/kg i.p. once): 27.9 mg/100 ml
BUN, 8th day (Test for nephrotoxicity; 18.8 mg/kg i.p. once): 50.7 mg/100 ml
IC50 (concentration required for 50% inhibition of growth) [1]: 0.29 µg/mL

CC1OC2C[NH2+][Pt-2]3([NH2+]CC2O1)[O]C(=O)C1(CCC1)C(=O)[O]3 [Example 23, cis-cyclobutane-1,1-dicarboxylato[(4S,5S)-4,5-bis(aminomethyl)-2-methyl-1,3-dioxolane]platinum(II)]
T/C (%) (murine leukemia L1210; 6.2 mg/kg i.p.): 108%
T/C (%) (murine leukemia L1210; 12.5 mg/kg i.p.): 115%
T/C (%) (murine leukemia L1210; 25 mg/kg i.p.): 150%
T/C (%) (murine leukemia L1210; 50 mg/kg i.p.): 201%
T/C (%) (murine leukemia L1210; 100 mg/kg i.p.): 254%
BUN, 1st day (Test for nephrotoxicity; 150 mg/kg i.p. once): 24.8 mg/100 ml
BUN, 4th day (Test for nephrotoxicity; 150 mg/kg i.p. once): 32.1 mg/100 ml
BUN, 8th day (Test for nephrotoxicity; 150 mg/kg i.p. once): 42.0 mg/100 ml
Creatinine, 1st day (Test for nephrotoxicity; 150 mg/kg i.p. once): 0.26 mg/100 ml
Creatinine, 4th day (Test for nephrotoxicity; 150 mg/kg i.p. once): 0.30 mg/100 ml
Creatinine, 8th day (Test for nephrotoxicity; 150 mg/kg i.p. once): 0.28 mg/100 ml
Kidney wt (paired weight), 1st day (Test for nephrotoxicity; [3]): 492 ± 22.7 mg
Kidney wt (paired weight), 4th day (Test for nephrotoxicity; [3]): 535 ± 16.3 mg
Kidney wt (paired weight), 8th day (Test for nephrotoxicity; [3]): 527 ± 13.8 mg
body weight ratio (BWR), 1st day (Test for nephrotoxicity; [4]): 0.98
body weight ratio (BWR), 4th day (Test for nephrotoxicity; [4]): 0.96
body weight ratio (BWR), 8th day (Test for nephrotoxicity; [4]): 0.99
IC50 (concentration required for 50% inhibition of growth) [1]: 1.75 µg/mL
Solubility in water ([2]; 20° C.): 22.1 mg/mL

O=C1[O][Pt-2]2([NH2+]CC3OC4(CCCC4)OC3C[NH2+]2)[O]C(=O)C12CCC2 [Example 30, cis-cyclobutane-1,1-dicarboxylato[(4R,5R)-4,5-bis(aminomethyl)-1,3-dioxolane-2-spiro-1'-cyclopentane]platinum(II)]
Number of dead mice for 7 days (ICR mice; female, 94 mg/kg i.p.): 0/6
Number of dead mice, 1st day (ICR mice; female, 94 mg/kg i.p.): 0/6
Number of dead mice for 7 days (ICR mice; female, 123 mg/kg i.p.): 0/6
Number of dead mice, 1st day (ICR mice; female, 123 mg/kg i.p.): 0/6
Number of dead mice for 7 days (ICR mice; female, 160 mg/kg i.p.): 1/6
Number of dead mice, 1st day (ICR mice; female, 160 mg/kg i.p.): 0/6
Number of dead mice, 5th day (ICR mice; female, 160 mg/kg i.p.): 1/6
Lethality (ICR mice; female, 160 mg/kg i.p.): 16.7
Number of dead mice for 7 days (ICR mice; female, 208 mg/kg i.p.): 4/6
Number of dead mice, 1st day (ICR mice; female, 208 mg/kg i.p.): 0/6
Number of dead mice, 3rd day (ICR mice; female, 208 mg/kg i.p.): 2/6
Number of dead mice, 4th day (ICR mice; female, 208 mg/kg i.p.): 2/4
Lethality (ICR mice; female, 208 mg/kg i.p.): 66.7
Number of dead mice for 7 days (ICR mice; female, 270 mg/kg i.p.): 6/6
Number of dead mice, 1st day (ICR mice; female, 270 mg/kg i.p.): 0/6
Number of dead mice, 2nd day (ICR mice; female, 270 mg/kg i.p.): 4/6
Number of dead mice, 3rd day (ICR mice; female, 270 mg/kg i.p.): 2/2
Lethality (ICR mice; female, 270 mg/kg i.p.): 100.0
Number of dead mice for 7 days (ICR mice; male, 94 mg/kg i.p.): 0/6
Number of dead mice, 1st day (ICR mice; male, 94 mg/kg i.p.): 0/6
Number of dead mice for 7 days (ICR mice; male, 123 mg/kg i.p.): 0/6
Number of dead mice, 1st day (ICR mice; male, 123 mg/kg i.p.): 1/6
Number of dead mice for 7 days (ICR mice; male, 160 mg/kg i.p.): 1/6
Number of dead mice, 1st day (ICR mice; male, 160 mg/kg i.p.): 0/6
Number of dead mice, 4th day (ICR mice; male, 160 mg/kg i.p.): 1/6
Lethality (ICR mice; male, 160 mg/kg i.p.): 16.7
Number of dead mice for 7 days (ICR mice; male, 208 mg/kg i.p.): 5/6
Number of dead mice, 1st day (ICR mice; male, 208 mg/kg i.p.): 1/6
Number of dead mice, 2nd day (ICR mice; male, 208 mg/kg i.p.): 1/6
Number of dead mice, 3rd day (ICR mice; male, 208 mg/kg i.p.): 3/5
Lethality (ICR mice; male, 208 mg/kg i.p.): 83.3
Number of dead mice for 7 days (ICR mice; male, 270 mg/kg i.p.): 6/6
Number of dead mice, 1st day (ICR mice; male, 270 mg/kg i.p.): 0/6
Number of dead mice, 2nd day (ICR mice; male, 270 mg/kg i.p.): 2/6
Number of dead mice, 3rd day (ICR mice; male, 270 mg/kg i.p.): 4/4
Lethality (ICR mice; male, 270 mg/kg i.p.): 100.0
T/C (%) (murine leukemia L1210; 6.2 mg/kg i.p.): 109%
T/C (%) (murine leukemia L1210; 12.5 mg/kg i.p.): 122%
T/C (%) (murine leukemia L1210; 25 mg/kg i.p.): 110%
T/C (%) (murine leukemia L1210; 50 mg/kg i.p.): 148%
T/C (%) (murine leukemia L1210; 100 mg/kg i.p.): 185%
IC50 (concentration required for 50% inhibition of growth) [1]: 0.55 µg/mL
Solubility in water ([2]; water): 1.9 mg/mL

CCC1(CC)OC2C[NH2+][Pt-2]3([NH2+]CC2O1)[O]C(=O)CC(=O)[O]3 [Example 37, cis-malonato[(4R,5R)-4,5-bis(aminomethyl)-2,2-diethyl-1,3-dioxolane]platinum(II)]
T/C (%) (murine leukemia L1210; 12.5 mg/kg i.p.): 130%
T/C (%) (murine leukemia L1210; 25 mg/kg i.p.): 180%
T/C (%) (murine leukemia L1210; 50 mg/kg i.p.): 231%
BUN, 1st day (Test for nephrotoxicity; 75.0 mg/kg i.p. once): 27.5 mg/100 ml
BUN, 4th day (Test for nephrotoxicity; 75.0 mg/kg i.p. once): 26.4 mg/100 ml
BUN, 8th day (Test for nephrotoxicity; 75.0 mg/kg i.p. once): 28.4 mg/100 ml
IC50 (concentration required for 50% inhibition of growth) [1]: 0.42 µg/mL
